Reference: PubChem BioAssay (NCI)
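Exposure lasted 48 hours, with cells grown in 96-well plates and compounds tested at five concentrations. TGI is the concentration that stops growth completely.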

Columns and labels:
Test in all cases: growth of human tumour cells (NCI), 48 h
[1] = tested on: 786-0 renal
[2] = tested on: A498 renal
[3] = tested on: A549 NSCLC
[4] = tested on: ACHN renal
[5] = tested on: CAKI-1 renal
[6] = tested on: CCRF-CEM leukemia
[7] = tested on: COLO 205 colon
[8] = tested on: DU-145 prostate
[9] = tested on: EKVX NSCLC
[10] = tested on: HCC-2998 colon
[11] = tested on: HCT-116 colon
[12] = tested on: HCT-15 colon
[13] = tested on: HL-60(TB) leukemia
[14] = tested on: HOP-62 NSCLC
[15] = tested on: HOP-92 NSCLC
[16] = tested on: HS 578T breast
[17] = tested on: HT29 colon
[18] = tested on: IGROV1 ovarian
[19] = tested on: K-562 leukemia
[20] = tested on: KM12 colon
[21] = tested on: LOX IMVI melanoma
[22] = tested on: M14 melanoma
[23] = tested on: MALME-3M melanoma
[24] = tested on: MCF7 breast
[25] = tested on: MDA-MB-231 breast
[26] = tested on: MDA-MB-435
[27] = tested on: MDA-N
[28] = tested on: MOLT-4 leukemia
[29] = tested on: NCI-H226 lung
[30] = tested on: NCI-H23 lung
[31] = tested on: NCI-H460 lung
[32] = tested on: NCI-H522 lung
[33] = tested on: NCI/ADR-RES ovarian
[34] = tested on: OVCAR-3 ovarian
[35] = tested on: OVCAR-4 ovarian
[36] = tested on: OVCAR-8 ovarian
[37] = tested on: PC-3 prostate
[38] = tested on: RPMI-8226 leukemia
[39] = tested on: RXF 393 renal
[40] = tested on: SF-268 CNS
[41] = tested on: SF-295 CNS
[42] = tested on: SF-539 CNS
[43] = tested on: SK-MEL-2 melanoma
[44] = tested on: SK-MEL-28 melanoma
[45] = tested on: SK-MEL-5 melanoma
[46] = tested on: SK-OV-3 ovarian
[47] = tested on: SN12C renal
[48] = tested on: SNB-19 CNS
[49] = tested on: SNB-75 CNS
[50] = tested on: SR leukemia
[51] = tested on: SW-620 colon
[52] = tested on: T-47D breast
[53] = tested on: TK-10 renal
[54] = tested on: U251 CNS
[55] = tested on: UACC-257 melanoma
[56] = tested on: UACC-62 melanoma
[57] = tested on: UO-31 renal
[58] = tested on: BT-549 breast
[59] = tested on: OVCAR-5 ovarian

Measured: TGI

Nc1nnnn1NC(=O)NCCCl
not listed: [58] | [59]
> 10 µM: all other assays above

COc1ccc2nc3n(c2c1)C(c1c(F)cccc1Cl)SC3 (stereo unspecified)
not listed: [16] | [17] | [23] | [25] | [29] | [32] | [40] | [42]
> 100 µM: all other assays above

Nc1ncnc2c1ncn2C1OC(CO)C2OC21 (stereo unspecified)
> 10 µM: [1] | [12] | [22] | [23] | [26] | [27] | [31] | [33] | [34]
not listed: [58]
> 100 µM: all other assays above
